Reference: PubChem BioAssay (NCI)
“And” between values parts separate entries of the source, which are not always exact repeats. Identical values can stand only once.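 1) Cells in 96-well plates. 2) Compound, 48 h, 5 concentrations. 3) Linear interpolation between surrounding doses. 4) Unreached endpoint = highest concentration. GI50 = concentration required for 50% inhibition of growth. TGI: concentration producing complete growth inhibition.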

Tests used:
Test in all cases: NCI-60 cell line screen, 48 h
A498 renal = system: A498 renal
CCRF-CEM leukemia = system: CCRF-CEM leukemia
HOP-62 NSCLC = system: HOP-62 NSCLC
K-562 leukemia = system: K-562 leukemia
MDA-MB-435 = system: MDA-MB-435
NCI-H522 lung = system: NCI-H522 lung
OVCAR-5 ovarian = system: OVCAR-5 ovarian
SF-539 CNS = system: SF-539 CNS
SNB-75 CNS = system: SNB-75 CNS
U251 CNS = system: U251 CNS

Row | SMILES | TGI (A498 renal) | TGI (CCRF-CEM leukemia) [µM] | TGI (HOP-62 NSCLC) [µM] | TGI (K-562 leukemia) [µM] | TGI (MDA-MB-435) [µM] | TGI (NCI-H522 lung) [µM] | TGI (OVCAR-5 ovarian) | TGI (SF-539 CNS) [µM] | TGI (SNB-75 CNS) [µM] | TGI (U251 CNS) [µM] | GI50 (A498 renal) | GI50 (NCI-H522 lung) | GI50 (OVCAR-5 ovarian)
1 | C[S+](C)C1(c2ccccc2)C(=O)c2ccccc2C1=O | > 100 µM | > 85.8 | > 100 | > 100 | > 100 | > 68.7 | > 89.7 µM | > 68.1 | > 89.2 | > 66.3 |  |  | 
2 | Cc1cc(C)c(N)c(CO)c1 | 0.231 µM and 0.409 µM | > 100 | > 100 | > 100 | > 100 | > 100 | 6.61 µM and 19 µM | > 100 | > 100 | > 100 | 0.0675 µM and 0.183 µM | > 100 µM and 42.5 µM | 1.17 µM and 4.31 µM
